# Experimental data as given in publication PMC9607644, “Glycoconjugation of Quinoline Derivatives Using the C-6 Position in Sugars as a Strategy for Improving the Selectivity and Cytotoxicity of Functionalized Compounds” (Molecules, 2022).
# How the values were obtained:
# MCF-7 cells = assay: Clonogenic assay, MCF-7; assay type: cell-based, human; conditions: IC50 concentration 72 h, then 10 days in fresh medium
# Method: (§1) MCF-7 and HCT-116 cells were treated with type A glycoconjugates and their ability to proliferate was observed. […] The formed colonies were stained with crystal violet (Figure 5).
# (§2) To determine the number of colonies forming by cells after exposure to the test compounds, a clonogenic assay was performed as reported in the literature. The cells were seeded into 6-well plates at a density of 1 × 10^5 (HCT-116) or 2 × 10^5 (MCF-7, NHDF-Neo) per well (3 mL) and allowed to attach for 24 h under standard conditions with 5% CO2 at 37 °C. The following day, the medium was removed and cells were treated with solutions of test compounds in fresh medium at a dose equal to their IC50 values. Control cells were grown with fresh medium supplemented with 0.5% DMSO. After 72 h of incubation, the cells were collected by trypsinization and then reseeded into new 6-well plates at a density of 1000 cells/well/3 mL. The plates with cells were incubated for 10 days under standard conditions with 5% CO2 at 37 °C. After this time, the medium was removed and the cells were washed with PBS, fixed with ice-cold ethanol (-20 °C) for 3 min, and washed again with PBS. Finally, cells were stained with crystal violet (0.01% in H2O; Sigma-Aldrich, Taufkirchen, Germany) for 20 min. The plates were then washed with H2O and allowed to air-dry.
# NHDF-Neo cells = assay: Annexin V-FITC/PI apoptosis flow cytometry, NHDF-Neo; assay type: cell-based; conditions: IC50 dose, 24 h
# Excerpt: This is important information from the point of view of drug design, as it provides detailed information on the cytotoxicity of a compound. Apoptosis is a natural biological process involving programmed cell death and plays an important role in maintaining correct homeostasis between cell proliferation and cell death. This is in contrast to necrosis, which is accompanied by acute inflammation, preceded by cell degradation due to the loss of the integrity of the cell membrane. It is possible to distinguish viable cells from apoptotic and necrotic cell fractions using Annexin V-FITC and Propidium Iodide (PI). Annexin V-FITC labels phosphatidylserine residues that, after the start of apoptosis, are located on the outer surface of the cell membrane, enabling the identification of cells in the early stages of apoptosis. PI binds stoichiometrically to intracellular DNA during late apoptosis and necrosis when the cell membrane has been damaged. This combination allows for the differentiation of early apoptotic (A+/P−), late apoptotic (A+/P+), necrosis (A−/P+), and normal (A−/P−) cells that can be quantified by flow cytometry. The experiments were performed on the HCT-116 and MCF-7 cancer cell lines and the NHDF-Neo healthy cell line. […] The results of the level of apoptosis induction by the tested compounds are presented in Figure 7 and in the Supplementary Materials (Figure S73).
# The cell cycle and the type of cell death induced by the test compounds were measured by using flow cytometry according to the manufacturer’s protocol. The cells were seeded into 6-well plates at a density of 3 × 10^5 (HCT-116) or 4 × 10^5 (MCF-7, NHDF-Neo) per well (3 mL) and allowed to attach for 24 h under standard conditions with 5% CO2 at 37 °C. The following day, the medium was removed and cells were treated with solutions of test compounds in fresh medium at a dose equal to their IC50 values. Control cells were grown with fresh medium supplemented with 0.5% DMSO. After 24 h of incubation, the cells were collected by trypsinization. Then, samples were centrifuged (3 min, 2000 rpm, RT) and washed with PBS, after which the cells were centrifuged again (3 min, 2000 rpm, RT) and the supernatant was carefully removed. The resulting precipitate contained cells, which were used for flow cytometry experiments.
# The fraction of dead cells after treatment with the test compounds were detected using the FITC Annexin-V Apoptosis Detection Kit with PI (BioLegend, San Diego, CA, USA). First, cells were suspended in 50 μL of cold Annexin-V Binding Buffer (BioLegend, San Diego, CA, USA) and incubated in the dark with 2.5 μL of antibody Annexin-V FITC and 10 μL of propidium iodide (PI) at 37 °C for 20 min. 250 μL of the Annexin-V Binding Buffer was then added and the samples were incubated in the dark on ice for 15 min. Cytometric analyses were performed using an Aria III flow cytometer (Becton Dickinson, Franklin Lakes, NJ, USA) with the FITC configuration (488 nm excitation; emission: LP mirror 503, BP filter 530/30) or PE configuration (547 nm excitation; emission: 585 nm) and at least 10,000 cells were counted.
# HCT-116 cells = assay: Clonogenic assay, HCT-116; assay type: cell-based, human; conditions: IC50 concentration 72 h, then 10 days in fresh medium
# Method: as §1, §2
# ctDNA = assay: Intercalation study, UV-Vis absorption titration with ctDNA; assay type: binding, calf; conditions: 50 µM glycoconjugate, ctDNA 3 to 300 µM, Tris-HCl pH 7.5, 2 h 37 °C
# Method: Due to the steric and electron features, quinoline-based compounds are well-known DNA intercalating agents. Therefore, the antiproliferative action of quinoline-related compounds can be related among others to intercalating between two adjacent base pairs of duplex DNA and inhibiting nucleic acid synthesis. […] The binding of the A-2 and E-2 to ctDNA has been characterized through absorption titration, which is an effective technique for DNA intercalation studies. The experiments were carried out for a constant concentration of glycoconjugates with increasing concentrations of ctDNA.
# For the DNA binding studies, all experiments were carried out in molecular biology grade Tris-HCl buffer at pH 7.5 (EURx, Poland). The purity of the calf thymus DNA (ctDNA) (Sigma-Aldrich, St. Louis, MO, USA) was determined by measuring the ratio of UV absorbance at 260 and 280 nm. Here, the ratio was in the range of 1.8–1.9, indicating the DNA was sufficiently free from protein. The concentration of ctDNA was determined from the absorbance at 260 nm and using a molar absorption coefficient ε = 6600 M^−1 cm^−1 [68]. […] The samples were incubated for 2 h at 37 °C with gently shaking and the absorption spectra were measured using a UV–Vis-NIR spectrophotometer JASCO V-570 (Tokyo, Japan) in the range of 200–400 nm.
SMILES,"clonogenic potential, MCF-7 (MCF-7 cells)","normal cells remained, NHDF-Neo (NHDF-Neo cells)","clonogenic potential, HCT-116 (HCT-116 cells)","binding to ctDNA, change of UV-Vis absorption spectrum (ctDNA)","dead cell fraction, NHDF-Neo (NHDF-Neo cells)","cells in late apoptosis, NHDF-Neo (NHDF-Neo cells)","necrotic cells, NHDF-Neo (NHDF-Neo cells)"
CC(=O)OC1O[C@H](Cn2cc(COc3cccc4cccnc34)nn2)[C@@H](OC(C)=O)[C@H](OC(C)=O)[C@H]1OC(C)=O (stereo partly shown) [Compound A-1],able to decrease the clonogenic potential,98%,able to decrease the clonogenic potential,–,–,–,–
OC1O[C@H](Cn2cc(COc3cccc4cccnc34)nn2)[C@@H](O)[C@H](O)[C@H]1O (stereo partly shown) [Compound A-2],able to decrease the clonogenic potential,95%,able to decrease the clonogenic potential,hypochromic and bathochromic effects,–,–,–
O[C@@H]1[C@@H](O)[C@@H](O[C@H]2O[C@H](Cn3cc(COc4cccc5cccnc45)nn3)[C@@H](O)[C@H](O)[C@H]2O)O[C@H](Cn2cc(COc3cccc4cccnc34)nn2)[C@H]1O [Compound D-2],–,–,–,–,51%,–,–
"CC(=O)OC[C@H]1O[C@@H](n2cc(COc3cccc4cccnc34)nn2)[C@H](OC(C)=O)[C@@H](OC(C)=O)[C@@H]1OC(C)=O [Compound E-1, reference compound]",–,–,–,–,–,61%,14%
"OC[C@H]1O[C@@H](n2cc(COc3cccc4cccnc34)nn2)[C@H](O)[C@@H](O)[C@@H]1O [Compound E-2, reference compound]",–,–,–,hypochromic and bathochromic effects,–,57%,9%
